Measured values taken from patent US20250325552A1, “SUBSTITUTED THIADIAZOLYL DERIVATIVES AS DNA POLYMERASE THETA INHIBITORS” (IDEAYA Biosciences, Inc., priority 2020, published 2025).

target: Polθ theta (1-899) (hPolQ) (Homo sapiens (Human), UniProt O75417); assay: Biological Assay 1: Polθ ATPase activity, NADH oxidation-coupled enzymatic assay (10 nM enzyme, 30 min); type: biochemical; conditions: Polθ (1-899) 10 nM, 100 μM ATP, 300 nM dT50 ssDNA; Examples 1 to 268; read-out: ATPase NADH coupling:Standard Screening:hPolQ IC50
How it was run: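 ATP turnover was coupled to NADH oxidation and followed at 340 nm every minute for 30 min. Enzyme (residues 1-899, 10 nM) sat with compound for 15 min at room temperature before an equal-volume addition of 100 μM ATP plus 300 nM dT50 ssDNA. Progress-curve slopes from 10-point dilutions were fitted by a four-parameter model.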

Polθ theta (1-899) (hPolQ), sequence (O75417 1-899): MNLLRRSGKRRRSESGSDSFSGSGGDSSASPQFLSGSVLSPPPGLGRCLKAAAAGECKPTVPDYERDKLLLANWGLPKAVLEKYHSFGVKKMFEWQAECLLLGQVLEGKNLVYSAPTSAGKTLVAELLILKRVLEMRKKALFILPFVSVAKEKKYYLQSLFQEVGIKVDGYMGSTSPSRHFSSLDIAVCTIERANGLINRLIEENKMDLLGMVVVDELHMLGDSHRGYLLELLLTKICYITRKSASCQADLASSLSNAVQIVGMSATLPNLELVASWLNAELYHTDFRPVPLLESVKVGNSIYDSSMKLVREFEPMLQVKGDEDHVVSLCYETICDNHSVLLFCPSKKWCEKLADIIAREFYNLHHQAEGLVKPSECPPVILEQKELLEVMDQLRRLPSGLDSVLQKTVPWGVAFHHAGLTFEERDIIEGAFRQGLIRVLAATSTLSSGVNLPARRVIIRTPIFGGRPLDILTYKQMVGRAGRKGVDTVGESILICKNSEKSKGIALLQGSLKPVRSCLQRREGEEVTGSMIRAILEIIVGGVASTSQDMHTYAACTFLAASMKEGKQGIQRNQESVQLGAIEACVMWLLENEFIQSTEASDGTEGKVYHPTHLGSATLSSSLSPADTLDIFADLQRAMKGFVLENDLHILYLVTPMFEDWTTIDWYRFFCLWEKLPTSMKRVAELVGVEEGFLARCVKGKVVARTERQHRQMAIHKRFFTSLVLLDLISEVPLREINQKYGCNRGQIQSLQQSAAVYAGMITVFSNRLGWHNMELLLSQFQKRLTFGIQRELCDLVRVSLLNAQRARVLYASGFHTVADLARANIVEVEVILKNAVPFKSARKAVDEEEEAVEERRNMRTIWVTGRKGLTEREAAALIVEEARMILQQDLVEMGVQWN

Structure (SMILES)	IC50
COc1cnc(Cl)cc1-c1cc(C)ncc1C(=O)Nc1nnc(OCC2CC3CC2CN3C(=O)C(C)C)s1 (stereo not shown) [Example 156, 2′-chloro-N-(5-((2-isobutyryl-2-azabicyclo[2.2.1]heptan-5-yl)methoxy)-1,3,4-thiadiazol-2-yl)-5′-methoxy-6-methyl-[4,4′-bipyridine]-3-carboxamide]	≤ 0.2 µM
COc1cccc(F)c1-c1cc(C)ncc1C(=O)Nc1nnc(OCC2CCS(=O)(=O)CC2)s1 [Example 158, N-(5-((1,1-dioxidotetrahydro-2H-thiopyran-4-yl)methoxy)-1,3,4-thiadiazol-2-yl)-4-(2-fluoro-6-methoxyphenyl)-6-methylnicotinamide]	≤ 0.2 µM
COc1cnc(Cl)cc1-c1cc(C)ncc1C(=O)Nc1nnc(OC[C@H]2CC[C@H](OC(F)F)CC2)s1 [Example 159, 2′-chloro-N-(5-(((1r,4r)-4-(difluoromethoxy)cyclohexyl)methoxy)-1,3,4-thiadiazol-2-yl)-5′-methoxy-6-methyl-(4,4′-bipyridine)-3-carboxamide]	≤ 0.2 µM
COc1cnc(Cl)cc1-c1cc(C)ncc1C(=O)Nc1nnc(OCC2(C)COC2)s1 [Example 162, 2′-chloro-5′-methoxy-6-methyl-N-(5-((3-methyloxetan-3-yl)methoxy)-1,3,4-thiadiazol-2-yl)-(4,4′-bipyridine)-3-carboxamide]	≤ 0.2 µM
COc1cnc(Cl)cc1-c1cc(C)ncc1C(=O)Nc1nnc(OCC23CC(C(C)(C)F)(C2)C3)s1 [Example 163, 2′-chloro-N-(5-((3-(2-fluoropropan-2-yl)bicyclo(1.1.1)pentan-1-yl)methoxy)-1,3,4-thiadiazol-2-yl)-5′-methoxy-6-methyl-(4,4′-bipyridine)-3-carboxamide]	≤ 0.2 µM
COc1cnc(Cl)cc1-c1cc(C)ncc1C(=O)Nc1nnc(OCC2COC2)s1 [Example 164, 2′-chloro-5′-methoxy-6-methyl-N-(5-(oxetan-3-ylmethoxy)-1,3,4-thiadiazol-2-yl)-(4,4′-bipyridine)-3-carboxamide]	≤ 0.2 µM
COc1cnc(Cl)cc1-c1cc(C)ncc1C(=O)Nc1nnc(OCC2CS(=O)(=O)C2)s1 [Example 166, 2′-chloro-N-(5-((1,1-dioxidothietan-3-yl)methoxy)-1,3,4-thiadiazol-2-yl)-5′-methoxy-6-methyl-(4,4′-bipyridine)-3-carboxamide]	≤ 0.2 µM
COc1cnc(Cl)cc1-c1cc(C)ncc1C(=O)Nc1nnc(OCC2CC3(COC3)C2)s1 [Example 172, N-(5-((2-oxaspiro(3.3)heptan-6-yl)methoxy)-1,3,4-thiadiazol-2-yl)-2′-chloro-5′-methoxy-6-methyl-(4,4′-bipyridine)-3-carboxamide]	≤ 0.2 µM
COc1cnc(Cl)cc1-c1cc(C)ncc1C(=O)Nc1nnc(OCC2CNC2)s1 [Example 173, N-(5-(azetidin-3-ylmethoxy)-1,3,4-thiadiazol-2-yl)-2′-chloro-5′-methoxy-6-methyl-(4,4′-bipyridine)-3-carboxamide]	1 to 10 µM
COc1cnc(Cl)cc1-c1cc(C)ncc1C(=O)Nc1nnc(OCC2CCNCC2)s1 [Example 174, 2′-chloro-5′-methoxy-6-methyl-N-(5-(piperidin-4-ylmethoxy)-1,3,4-thiadiazol-2-yl)-(4,4′-bipyridine)-3-carboxamide]	≤ 0.2 µM
COc1cnc(Cl)cc1-c1cc(C)ncc1C(=O)Nc1nnc(OCC2CCN(C)C2)s1 (stereo not shown) [Example 176, 2′-chloro-5′-methoxy-6-methyl-N-(5-((1-methylpyrrolidin-3-yl)methoxy)-1,3,4-thiadiazol-2-yl)-(4,4′-bipyridine)-3-carboxamide]	0.2 to 0.5 µM
COc1cnc(Cl)cc1-c1cc(C)ncc1C(=O)Nc1nnc(OCC2CCOC2C)s1 (stereo not shown) [Example 177, 2′-chloro-5′-methoxy-6-methyl-N-(5-((2-methyltetrahydrofuran-3-yl)methoxy)-1,3,4-thiadiazol-2-yl)-(4,4′-bipyridine)-3-carboxamide]	≤ 0.2 µM
COc1cnc(Cl)cc1-c1cc(C)ncc1C(=O)Nc1nnc(OCC2CCN(C)CC2)s1 [Example 178, 2′-chloro-5′-methoxy-6-methyl-N-(5-((1-methylpiperidin-4-yl)methoxy)-1,3,4-thiadiazol-2-yl)-(4,4′-bipyridine)-3-carboxamide]	0.2 to 0.5 µM
COc1cnc(Cl)c(F)c1-c1cc(C)ncc1C(=O)Nc1nnc(OCC23CC(O)(C2)C3)s1 [Example 185, 2′-chloro-3′-fluoro-N-(5-((3-hydroxybicyclo(1.1.1)pentan-1-yl)methoxy)-1,3,4-thiadiazol-2-yl)-5′-methoxy-6-methyl-(4,4′-bipyridine)-3-carboxamide]	≤ 0.2 µM
COc1cnc(Cl)cc1-c1cc(C)ncc1C(=O)Nc1nnc(OC[C@@H]2COCCO2)s1 [Example 186, (S)—N-(5-((1,4-dioxan-2-yl)methoxy)-1,3,4-thiadiazol-2-yl)-2′-chloro-5′-methoxy-6-methyl-(4,4′-bipyridine)-3-carboxamide]	≤ 0.2 µM
COc1cnc(Cl)cc1-c1cc(C)ncc1C(=O)Nc1nnc(OC[C@H]2COCCO2)s1 [Example 187, (R)—N-(5-((1,4-dioxan-2-yl)methoxy)-1,3,4-thiadiazol-2-yl)-2′-chloro-5′-methoxy-6-methyl-(4,4′-bipyridine)-3-carboxamide]	≤ 0.2 µM
COc1ccccc1-c1cnccc1C(=O)Nc1nnc(OCCC2(C#N)CC2)s1 [Example 192, N-(5-(2-(1-cyanocyclopropyl)ethoxy)-1,3,4-thiadiazol-2-yl)-3-(2-methoxyphenyl)pyridine-4-carboxamide]	1 to 10 µM
COc1cnc(Cl)cc1-c1cc(C)ncc1C(=O)Nc1nnc(OC[C@H]2C[C@@H](O)C2)s1 [Example 193, 2′-chloro-N-(5-(((1s,3s)-3-hydroxycyclobutyl)methoxy)-1,3,4-thiadiazol-2-yl)-5′-methoxy-6-methyl-(4,4′-bipyridine)-3-carboxamide]	≤ 0.2 µM
COc1cccc(F)c1-c1cn2ncc(C)c2cc1C(=O)Nc1nnc(OC[C@H]2CC[C@H](O)CC2)s1 [Example 194, 6-(2-fluoro-6-methoxyphenyl)-N-(5-(((1r,4r)-4-hydroxycyclohexyl)methoxy)-1,3,4-thiadiazol-2-yl)-3-methylpyrazolo(1,5-a)pyridine-5-carboxamide]	1 to 10 µM
COc1cccc(F)c1-c1cc2cnc(C)n2cc1C(=O)Nc1nnc(OC[C@H]2CC[C@H](O)CC2)s1 [Example 195, 7-(2-fluoro-6-methoxyphenyl)-N-(5-(((1r,4r)-4-hydroxycyclohexyl)methoxy)-1,3,4-thiadiazol-2-yl)-3-methylimidazo(1,5-a)pyridine-6-carboxamide]	≤ 0.2 µM
COc1cnc(Cl)cc1-c1cc(C)ncc1C(=O)Nc1nnc(OC[C@H]2CC[C@@H](F)CC2)s1 [Example 196, 2′-chloro-N-(5-(((1s,4s)-4-fluorocyclohexyl)methoxy)-1,3,4-thiadiazol-2-yl)-5′-methoxy-6-methyl-(4,4′-bipyridine)-3-carboxamide]	≤ 0.2 µM

same assay, conditions: Polθ (1-899) 10 nM, 100 μM ATP, 300 nM dT50 ssDNA; value printed as bound; read-out: ATPase NADH coupling:Standard Screening:hPolQ IC50

Structure (SMILES)	IC50
O=C(Nc1nnc(OCC2CCOCC2)s1)c1cccnc1N1CCOCC1 [Example 157, 2-morpholino-N-(5-((tetrahydro-2H-pyran-4-yl)methoxy)-1,3,4-thiadiazol-2-yl)nicotinamide]	> 10 µM
